Assay results from publication PMC8348200, “Selective Antifungal Activity and Fungal Biofilm Inhibition of Tryptophan Center Symmetrical Short Peptide” (International Journal of Molecular Sciences, 2021).
In brackets after ≈: the same amount, converted by molar mass. Read-outs that look alike come from different tables or passages of the source. Residues, ends and D or L forms follow the SMILES beside them. No end group written: not given here.

Key:
[1] = system: C. tropicalis cgmcc 2.1975; experiment: microbe, parasite or virus in culture; assay type: cell-based; settings: cgmcc 2.1975, 48 h; read-out: MICs, C. tropicalis cgmcc 2.1975
Protocol: (§1) The peptide antimicrobial activity was determined according to the Clinical and Laboratory Standards Institute method, with modifications. Bacteria concentration was measured by ultraviolet spectrophotometer, and fungi concentration was confirmed by McMillan’s turbidimetric method, which compared the fungi solution with the standard McFarland tube in front of the horizontal line on the paper with the naked eye. Because the light has different refract in different liquids. The standard solution is composed of sulfuric acid and barium chloride, which is equivalent to 1*10^8 CFU fungi. After cultivation, the growth of fungi and bacteria was measured by TECAN automatic enzyme label instrument. Briefly, bacterial cells were cultured in MHB until logarithmic phase, yeast colonies cultured in Yeast Peptone Dextrose Agar (YPDA) were picked and diluted in RPMI 1640 growth medium buffered with morpholine propane sulfonic acid (MOPS), and then 50 μL of bacterial or fungi cell solution (0.5–1 × 10^4 CFU/mL) was added to each well of sterile 96-well plates. Each well contained 50 μL of AMPs dissolved in BSA; the final concentrations of the peptides ranged from 0.5 to 128 μM. The lowest concentration of peptide with no microbial growth being observed were measured after incubation at 37 °C for 24 h for bacteria or at 28 °C for 48 h for fungi. Broth with microbial cells and un-inoculated broth were used as positive control and negative controls, respectively.

[2] = system: L. plantarum 7469; experiment: microbe, parasite or virus in culture; assay type: cell-based; settings: 24 h; read-out: MICs, L. plantarum 7469
Protocol: as §1

[3] = system: C. parapsilosis cgmcc 2.3989; experiment: microbe, parasite or virus in culture; assay type: cell-based; settings: cgmcc 2.3989, 48 h; read-out: MICs, C. parapsilosis cgmcc 2.3989
Protocol: as §1

[4] = system: L. rhamnosus 1.0911; experiment: microbe, parasite or virus in culture; assay type: cell-based, Lactobacillus rhamnosus; settings: 24 h; read-out: MICs, L. rhamnosus 1.0911
Protocol: as §1

[5] = system: L. rhamnosus 1.0385; experiment: microbe, parasite or virus in culture; assay type: cell-based, Lactobacillus rhamnosus; settings: 24 h; read-out: MICs, L. rhamnosus 1.0385
Protocol: as §1

[6] = system: C. albicans cgmcc 2.2086; experiment: microbe, parasite or virus in culture; assay type: cell-based, Candida albicans; settings: cgmcc 2.2086, 48 h; read-out: MICs, C. albicans cgmcc 2.2086
Protocol: as §1

[7] = system: C. albicans SP3937; experiment: microbe, parasite or virus in culture; assay type: cell-based, Candida albicans; settings: clinical isolate; RPMI 1640 buffered with MOPS, 28 °C 48 h, 0.5-128 μM; read-out: MICs, C. albicans SP3937
Protocol: as §1

[8] = system: C. albicans SP3902; experiment: microbe, parasite or virus in culture; assay type: cell-based, Candida albicans; settings: clinical isolate; RPMI 1640 buffered with MOPS, 28 °C 48 h, 0.5-128 μM; read-out: MICs, C. albicans SP3902
Protocol: as §1

[9] = system: C. albicans SP3903; experiment: microbe, parasite or virus in culture; assay type: cell-based, Candida albicans; settings: clinical isolate; RPMI 1640 buffered with MOPS, 28 °C 48 h, 0.5-128 μM; read-out: MICs, C. albicans SP3903
Protocol: as §1

[10] = system: C. albicans Isolated from Alveolar Fluid; experiment: microbe, parasite or virus in culture; assay type: cell-based, Candida albicans; settings: RPMI 1640 buffered with MOPS, 28 °C 48 h, 0.5-128 μM; read-out: MICs, C. albicans Isolated from Alveolar Fluid
Protocol: as §1

[11] = system: S. thermophilus YM-C; experiment: microbe, parasite or virus in culture; assay type: cell-based, Streptococcus thermophiles; settings: 24 h; read-out: MICs, S. thermophilus YM-C
Protocol: as §1

[12] = system: E. coli 25922; experiment: microbe, parasite or virus in culture; assay type: cell-based, Escherichia coli; settings: 25922, 24 h; read-out: MICs, E. coli 25922
Protocol: as §1

[13] = system: E. coli UB1005; experiment: microbe, parasite or virus in culture; assay type: cell-based, Escherichia coli; settings: UB1005, 24 h; read-out: MICs, E. coli UB1005
Protocol: as §1

[14] = system: Fluconazole-resistant C. albicans 56214; experiment: microbe, parasite or virus in culture; settings: fluconazole-resistant strain; RPMI 1640 buffered with MOPS, 28 °C 48 h, 0.5-128 μM
Protocol: as §1, with “Bacteria concentration was measured by ultraviolet spectrophotometer, and fungi concentration was confirmed by McMillan’s turbidimetric method, which compared the fungi solution with the standard McFarland tube in front of the horizontal line on the paper with the naked eye.” left out, “The lowest concentration of peptide with no microbial growth being observed were measured after incubation at 37 °C for 24 h for bacteria or at 28 °C for 48 h for fungi.” left out

[15] = system: S. aureus 29213; experiment: microbe, parasite or virus in culture; assay type: cell-based, Staphylococcus aureus; settings: 29213, 24 h; read-out: MICs, S. aureus 29213
Protocol: as §1

[16] = system: S. aureus 25923; experiment: microbe, parasite or virus in culture; assay type: cell-based, Staphylococcus aureus; settings: 25923, 24 h; read-out: MICs, S. aureus 25923
Protocol: as §1

[17] = system: human red blood cells; experiment: Hemolysis assay; assay type: cell-based; settings: at the highest tested concentration; fresh human erythrocytes
Protocol: The cytotoxicity of the peptides was determined with three cell types, including the Pig kidney cells, HEK 293T cells and fresh, healthy human red blood cells (donated by Zhihua Wang) via the MTT dye reduction assay and hemolysis assay.

[18] = system: C.albicans cgmcc 2.2086; experiment: microbe, parasite or virus in culture; assay type: cell-based, Candida albicans; settings: cgmcc 2.2086, 24 h
Protocol: as §1, with “The lowest concentration of peptide with no microbial growth being observed were measured after incubation at 37 °C for 24 h for bacteria or at 28 °C for 48 h for fungi.” left out
The salt and acid sensitivities of the peptides were measured using with modified method to test MIC values; tested peptides were incubated in the presence of different final concentrations of physiological salts. The subsequent steps were consistent with the MIC determination protocol.

## CC(C)C[C@H](NC(=O)[C@H](CS)NC(=O)[C@H](CC(C)C)NC(=O)[C@H](Cc1c[nH]c2ccccc12)NC(=O)[C@H](CC(C)C)NC(=O)[C@H](CS)NC(=O)[C@H](CC(C)C)NC(=O)[C@H](CCCNC(=N)N)NC(=O)[C@@H](N)CCCNC(=N)N)C(=O)N[C@@H](CCCNC(=N)N)C(=O)N[C@@H](CCCNC(=N)N)C(N)=O [Peptide P3] (H-RRLCLWLCLRR-NH2; N-terminus assumed)
[1]
  MIC: 4 µM (≈ 5.95 µg/mL)
[2]
  MIC: 128 µM (≈ 190 µg/mL)
[3]
  MIC: 16 µM (≈ 23.8 µg/mL)
[4]
  MIC: 128 µM (≈ 190 µg/mL)
[5]
  MIC: >128 µM
[6]
  MIC: 8 µM (≈ 11.9 µg/mL)
[7]
  MIC: 16 µM (≈ 23.8 µg/mL)
[8]
  MIC: 16 µM (≈ 23.8 µg/mL)
[9]
  MIC: 16 µM (≈ 23.8 µg/mL)
[10]
  MIC: 16 µM (≈ 23.8 µg/mL)
[11]
  MIC: >128 µM
[12]
  MIC: 4 µM (≈ 5.95 µg/mL)
[13]
  MIC: 2 µM (≈ 2.97 µg/mL)
[14]
  MICs, C. albicans 56214: 16 µM
[15]
  MIC: 8 µM (≈ 11.9 µg/mL)
[16]
  MIC: 8 µM (≈ 11.9 µg/mL)

## RRFSFWFSFRR-NH2 [Peptide P19]
[17]
  hemolysis: less than 5%
[1]
  MIC: 2 µM
[2]
  MIC: >128 µM
[3]
  MIC: 2 µM
[4]
  MIC: >128 µM
[5]
  MIC: >128 µM
[6]
  MIC: 2 µM
[7]
  MIC: 4 µM
[8]
  MIC: 4 µM
[9]
  MIC: 2 µM
[10]
  MIC: 4 µM
[11]
  MIC: >128 µM
[12]
  MIC: 128 µM
[13]
  MIC: 128 µM
[14]
  MICs, C. albicans 56214: 4 µM
[18]; read-out: MIC in acid environment, pH = 6
  MIC: 4 µM
[18]; read-out: MIC in the presence of FeCl3
  MIC: 4 µM
[18]; read-out: MIC in the presence of KCl
  MIC: 4 µM
[18]; read-out: MIC in the presence of MgCl2
  MIC: 4 µM
[18]; read-out: MIC in the presence of NH4Cl
  MIC: 4 µM
[18]; read-out: MIC in the presence of NaCl
  MIC: 32 µM
[18]; read-out: MIC in the presence of ZnCl2
  MIC: 4 µM
[18]; read-out: MIC, Control
  MIC: 2 µM
[15]
  MIC: 128 µM
[16]
  MIC: >128 µM

## RRISIWISIRR-NH2 [Peptide P17]
[1]
  MIC: 1 µM
[2]
  MIC: >128 µM
[3]
  MIC: 1 µM
[4]
  MIC: 32 µM
[5]
  MIC: 8 µM
[6]
  MIC: 4 µM
[7]
  MIC: 4 µM
[8]
  MIC: 4 µM
[9]
  MIC: 2 µM
[10]
  MIC: 8 µM
[11]
  MIC: >128 µM
[12]
  MIC: 128 µM
[13]
  MIC: 16 µM
[14]
  MICs, C. albicans 56214: 4 µM
[15]
  MIC: 128 µM
[16]
  MIC: 128 µM

## RRLALWLALRR-NH2 [Peptide P1]
[1]
  MIC: 2 µM
[2]
  MIC: >128 µM
[3]
  MIC: 8 µM
[4]
  MIC: 64 µM
[5]
  MIC: 8 µM
[6]
  MIC: 8 µM
[7]
  MIC: 16 µM
[8]
  MIC: 32 µM
[9]
  MIC: 16 µM
[10]
  MIC: 8 µM
[11]
  MIC: 128 µM
[12]
  MIC: 4 µM
[13]
  MIC: 2 µM
[14]
  MICs, C. albicans 56214: 16 µM
[15]
  MIC: 8 µM
[16]
  MIC: 8 µM

## RRLSLWLSLRR-NH2 [Peptide P2]
[1]
  MIC: 2 µM
[2]
  MIC: 128 µM
[3]
  MIC: 8 µM
[4]
  MIC: 8 µM
[5]
  MIC: 8 µM
[6]
  MIC: 4 µM
[7]
  MIC: 8 µM
[8]
  MIC: 16 µM
[9]
  MIC: 16 µM
[10]
  MIC: 8 µM
[11]
  MIC: >128 µM
[12]
  MIC: 4 µM
[13]
  MIC: 2 µM
[14]
  MICs, C. albicans 56214: 8 µM
[15]
  MIC: 4 µM
[16]
  MIC: 16 µM
